Assay results as given in US20260266848A1, “COMPOSITIONS AND METHODS FOR DIAGNOSING AND TREATING DYSTONIA” (Duke University, priority 2023, published 2026).

Columns and labels:
DYT-TOR1A MEF EVs = assay: Quantitative LC-MS/MS proteomics of EVs from drug-treated DYT-TOR1A MEF cultures (ritonavir, salubrinal); type: cell-based, mouse; design: key to RTV Corrective Direction / RTV Corrective Direction, Grwd1 / RTV Corrective Direction, Srrm2 / RTV Corrective Direction, Rbm17 / RTV Corrective Direction, Dcaf8 / RTV Corrective Direction, Edil3 / RTV Corrective Direction, Timp3 / RTV Corrective Direction, Heatr3 / RTV Corrective Direction, Brd4 / RTV Corrective Direction, P3h4 / RTV Corrective Direction, Pacsin3 / RTV Corrective Direction, Naa50 / RTV Corrective Direction, Lpar6 / RTV Corrective Direction, Ndrg1 / RTV Corrective Direction, Kntc1 / RTV Corrective Direction, Cdk11b / RTV Corrective Direction, Sumo1 / RTV Corrective Direction, Lsm4 / RTV Corrective Direction, Hmga2 / RTV Corrective Direction, Cstf1 / RTV Corrective Direction, Tes / RTV Corrective Direction, Sbno1 / RTV Corrective Direction, Unc119b / RTV Corrective Direction, Cfdp1 / RTV Corrective Direction, Sec61b: YES = protein abundance effect opposite to DYT/WT; details: EV protein abundance
WT MEF EVs = assay: Quantitative LC-MS/MS proteomics of EVs from ISRIB-treated WT MEF cultures; type: cell-based, mouse; design: key to ISRIB and DYT Parallel Direction / ISRIB and DYT Parallel Direction, Ctdsp1 / ISRIB and DYT Parallel Direction, Pcdh19 / ISRIB and DYT Parallel Direction, Tspan7 / ISRIB and DYT Parallel Direction, Myo1e / ISRIB and DYT Parallel Direction, Plpp3 / ISRIB and DYT Parallel Direction, Sh3bp4 / ISRIB and DYT Parallel Direction, Dnajc7 / ISRIB and DYT Parallel Direction, Drg1 / ISRIB and DYT Parallel Direction, Maea: YES = protein abundance effect similar to DYT/WT; details: EV protein abundance

## Itpa
DYT-TOR1A MEF EVs; DYT + RTV (ritonavir) vs DYT, direction compared with DYT/WT
  RTV Corrective Direction: YES
DYT-TOR1A MEF EVs; ritonavir (RTV)-treated DYT vs DYT
  DYT + RTV/DYT Cohen's d: 12.80
WT MEF EVs; ISRIB-treated WT vs WT
  WT + ISRIB/WT Cohen's d: −1.25
WT MEF EVs; WT + ISRIB vs WT, direction compared with DYT/WT
  ISRIB and DYT Parallel Direction: YES
